Measurements as given in patent US8067535B2 (priority 2003, dated 2011).

Experiments:
[1] = tested on: vaccinia virus-specific CD8^+ CTL lines; type: cell-based, human
[2] = tested on: CD8^+ T cells in PBMCs of HLA-A0201-positive donors; type: cell-based, human

Sequence	recognition by CTL line [1]	specific recognition of epitope peptide by CTL line [1]	kinetics of the frequency of epitope-specific CD8^+ T cells: peak [2]	kinetics of the frequency of epitope-specific CD8^+ T cells: persistence [2]
TVADVRHCL [peptide B7080]	recognized	–	–	–
LLYAHINAL [peptide 029D]	recognized	–	–	–
CLTEYILWV [peptide 74A]	recognized	high level of specific recognition	peaked two weeks after primary immunization	still detectable one to three years following primary immunization
KVDDTFYYV [peptide 165]	recognized	high level of specific recognition	peaked two weeks after primary immunization	still detectable one to three years following primary immunization
MPAYIRNTL [peptide B7034]	recognized	–	–	–
